“Also recorded” adds a separate entry of the source.
Legend:
Type in all cases: biochemical, human
[1] = system: normal pooled plasma (NPP); experiment: dRVVT Screen / dRVVT Confirm test, 1:1 mixing study
Text: (§1) The results of the LA screening assays are expressed by Screen Ratio (Rs), an assay done in the presence of low levels of phospholipid, Confirm Ratio (Re), an assay done in the presence of elevated levels of phospholipid, Screen-to-Confirm Ratio (R) and Normalized Screen-to-Confirm Ratio (NR) defined as follows: […]
(§2) For each of the assays above, irrespective of the clotting inhibitor used in the assay, the measured screen assay clotting time of a patient sample is compared to the measured screen assay clotting time of normal platelet poor plasma and expressed as a ratio (Rs). Additionally, the measured confirm assay clotting time of a patient sample is compared to the measured confirm assay clotting time of normal platelet poor plasma and expressed as a ratio (Rc). A normalized ratio (NR) is expressed as Rs/Rc. The NR is compared to a cutoff ratio established from normal, healthy subjects.

[2] = system: LA positive plasma sample; experiment: as above; conditions: for NR of dRVVT test: 1000 ng/ml PPACK
Text: as §1, §2

[3] = system: LA positive plasma sample; experiment: APTT-based silica clotting time (SCT Screen / SCT Confirm) assay, 1:1 mixing study
Text: as §1, §2
(§3) D-phenylalanyl-1-prolyl-1-arginine-chloromethyl ketone (PPACK) is a synthetic peptide that irreversibly binds to the catalytic site of thrombin. Referring to FIGS. 1-3, the use of PPACK in an SCT assay is shown where a plasma test sample was mixed with a LA negative plasma sample pool in a 1:1 ratio during testing (i.e., in a mixing study setting). By a mixing study, clotting factors that are present in normal plasma are added to the test plasma suspected of having a coagulation disorder.
(§4) Referring to FIGS. 1A-B, while the effect of PPACK on SCT Screen and SCT Confirm is similar for the LA negative sample, PPACK has much greater impact on SCT Screen than on SCT Confirm for the LA positive samples.
The effect of PPACK on LA detection is further analyzed on the LA positive sample diluted with LA negative sample in different ratios (1:1 and 1:3 of LA positive: LA Negative). When the LA positive sample was diluted 4-fold with LA negative sample, the LA was not detectable in the absence of PPACK (NR: […]) thereby underscoring the increased sensitivity of the method disclosed herein.

[4] = system: LA negative sample (platelet poor NPP); experiment: as above; conditions: for Screen-to-Confirm Ratio (R) of SCT Assay: LA negative sample
Text: as §1, §2, §3, §4

[5] = system: patient plasma samples (LA negative, factor deficient, LA positive); experiment: HemosIL dRVVT Screen and dRVVT Confirm in the presence of PPACK, 1:1 mixing study setting, patient samples; conditions: 350 nM PPACK
Text: as §1
as §2, with “subjects. […]” for “subjects.”
The study reported the normalized ratio correctly for all plasma samples and addressed issues with factor deficiency (Table 2).

[6] = sample 0114 LA NEG, LA Negative Pool
[7] = sample 0114 S03, FVIIIDef (con)
[8] = sample 0114 S04, FVIIIDef (con)
[9] = sample 0114 S05, FVIII (con)/vWF Def
[10] = sample 0114 S06, FVIII (con)/vWF Def

CC1CNc2c(cccc2S(=O)(=O)N[C@@H](CCCNC(=N)N)C(=O)N2CC[C@@H](C)C[C@@H]2C(=O)O)C1 (some centres unmarked) [argatroban]
Screen-to-Confirm Ratio of dRVVT Assay ([1]; 500 ng/ml argatroban (1.06 in the absence of argatroban)): 0.9
Normalized ratio of dRVVT Assay ([2]; LA positive sample, 500 ng/ml argatroban (from 1.34)): 1.57
Change of Screen-to-Confirm Ratio of dRVVT Assay ([2]; LA positive sample, argatroban): didn't change

D-phenylalanyl-1-prolyl-1-arginine-chloromethyl ketone [PPACK]
Screen-to-Confirm Ratio of dRVVT test ([1]; increasing PPACK concentrations (from 1.02)): 0.91
NR of dRVVT test ([2]; LA positive sample 1:1 diluted with NPP, automated mixing study 1:1): 1.42
NR of dRVVT test ([2]; LA positive sample 1:3 diluted with NPP, automated mixing study 1:1): 1.19
NR of dRVVT test ([2]; LA positive sample undiluted, automated mixing study 1:1 with NPP/PPACK): 1.76
Screen-to-Confirm Ratio of dRVVT test ([2]; LA positive sample, increasing PPACK concentrations (from 1.42)): 1.58
Normalized Ratio (NR) of SCT Assay ([3]; LA positive sample 1:1 diluted with NPP, 1000 ng/ml PPACK, automated mixing study 1:1): 1.82
Normalized Ratio (NR) of SCT Assay ([3]; LA positive sample 1:3 diluted with NPP, 1000 ng/ml PPACK, automated mixing study 1:1): 1.46
Normalized Ratio (NR) of SCT Assay ([3]; LA positive sample diluted 4-fold with LA negative sample, 1000 nM PPACK (1.08 in the absence of PPACK)): 1.46
Normalized Ratio (NR) of SCT Assay ([3]; LA positive sample undiluted, 1000 ng/ml PPACK, automated mixing study 1:1 with NPP/PPACK): 2.34
Screen-to-Confirm Ratio (R) of SCT Assay ([3]; LA positive sample, 1000 nM PPACK (1.09 in the absence of PPACK)): 1.82
Screen-to-Confirm Ratio (R) of SCT Assay ([4]; 100 nM PPACK (0.81 at 0 nM)): 0.83
Screen-to-Confirm Ratio (R) of SCT Assay ([4]; 1000 nM PPACK (0.81 at 0 nM)): 0.78
Change of Screen-to-Confirm Ratio of SCT Assay ([4]; NPP / LA negative sample, increasing PPACK concentrations): remained the same; also recorded: decreased slightly
Confirm [5, 6]: 50.4 s
Confirm (Rc) [5, 6]: 1.00
S/C (NR) [5, 6]: 1.00
S/C (R) [5, 6]: 0.98
Screen [5, 6]: 49.6 s
Screen (Rs) [5, 6]: 1.00
Confirm ([5]; sample 0114 S01, FVDef (con)): 62.8 s
Confirm (Rc) ([5]; sample 0114 S01, FVDef (con)): 1.25
S/C (NR) ([5]; sample 0114 S01, FVDef (con)): 1.02
S/C (R) ([5]; sample 0114 S01, FVDef (con)): 1.01
Screen ([5]; sample 0114 S01, FVDef (con)): 63.3 s
Screen (Rs) ([5]; sample 0114 S01, FVDef (con)): 1.28
Confirm ([5]; sample 0114 S02, FVDef (con)): 54.2 s
Confirm (Rc) ([5]; sample 0114 S02, FVDef (con)): 1.08
S/C (NR) ([5]; sample 0114 S02, FVDef (con)): 0.88
S/C (R) ([5]; sample 0114 S02, FVDef (con)): 0.87
Screen ([5]; sample 0114 S02, FVDef (con)): 46.9 s
Screen (Rs) ([5]; sample 0114 S02, FVDef (con)): 0.95
Confirm [5, 7]: 47.9 s
Confirm (Rc) [5, 7]: 0.95
S/C (NR) [5, 7]: 1.05
S/C (R) [5, 7]: 1.04
Screen [5, 7]: 49.7 s
Screen (Rs) [5, 7]: 1.00
Confirm [5, 8]: 48.5 s
Confirm (Rc) [5, 8]: 0.96
S/C (NR) [5, 8]: 1.03
S/C (R) [5, 8]: 1.02
Screen [5, 8]: 49.3 s
Screen (Rs) [5, 8]: 0.99
Confirm [5, 9]: 49.2 s
Confirm (Rc) [5, 9]: 0.98
S/C (NR) [5, 9]: 1.00
S/C (R) [5, 9]: 0.98
Screen [5, 9]: 48.4 s
Screen (Rs) [5, 9]: 0.98
Confirm [5, 10]: 48.9 s
Confirm (Rc) [5, 10]: 0.97
S/C (NR) [5, 10]: 1.01
S/C (R) [5, 10]: 0.99
Screen [5, 10]: 48.6 s
Screen (Rs) [5, 10]: 0.98
Confirm ([5]; sample 0114 S07, FIXDef (con)): 50.5 s
Confirm (Rc) ([5]; sample 0114 S07, FIXDef (con)): 1.00
S/C (NR) ([5]; sample 0114 S07, FIXDef (con)): 0.97
S/C (R) ([5]; sample 0114 S07, FIXDef (con)): 0.95
Screen ([5]; sample 0114 S07, FIXDef (con)): 41.1 s
Screen (Rs) ([5]; sample 0114 S07, FIXDef (con)): 0.97
Confirm ([5]; sample 0114 S08, FIXDef (con)): 48.9 s
Confirm (Rc) ([5]; sample 0114 S08, FIXDef (con)): 0.97
S/C (NR) ([5]; sample 0114 S08, FIXDef (con)): 1.01
S/C (R) ([5]; sample 0114 S08, FIXDef (con)): 0.99
Screen ([5]; sample 0114 S08, FIXDef (con)): 48.5 s
Screen (Rs) ([5]; sample 0114 S08, FIXDef (con)): 0.98
Confirm ([5]; sample 0114 S09, FXDef (con)): 59.2 s
Confirm (Rc) ([5]; sample 0114 S09, FXDef (con)): 1.17
S/C (NR) ([5]; sample 0114 S09, FXDef (con)): 1.04
S/C (R) ([5]; sample 0114 S09, FXDef (con)): 1.03
Screen ([5]; sample 0114 S09, FXDef (con)): 60.7 s
Screen (Rs) ([5]; sample 0114 S09, FXDef (con)): 1.22
Confirm ([5]; sample 0114 S10, FXDef (con)): 51.4 s
Confirm (Rc) ([5]; sample 0114 S10, FXDef (con)): 1.02
S/C (NR) ([5]; sample 0114 S10, FXDef (con)): 1.01
S/C (R) ([5]; sample 0114 S10, FXDef (con)): 0.99
Screen ([5]; sample 0114 S10, FXDef (con)): 51.1 s
Screen (Rs) ([5]; sample 0114 S10, FXDef (con)): 1.03
Confirm ([5]; sample 0114 S11, FXIDef (con)): 49.7 s
Confirm (Rc) ([5]; sample 0114 S11, FXIDef (con)): 0.99
S/C (NR) ([5]; sample 0114 S11, FXIDef (con)): 1.00
S/C (R) ([5]; sample 0114 S11, FXIDef (con)): 0.98
Screen ([5]; sample 0114 S11, FXIDef (con)): 48.8 s
Screen (Rs) ([5]; sample 0114 S11, FXIDef (con)): 0.98
Confirm ([5]; sample 0114 S12, FXIDef (con)): 47.7 s
Confirm (Rc) ([5]; sample 0114 S12, FXIDef (con)): 0.95
S/C (NR) ([5]; sample 0114 S12, FXIDef (con)): 1.00
S/C (R) ([5]; sample 0114 S12, FXIDef (con)): 0.98
Screen ([5]; sample 0114 S12, FXIDef (con)): 46.8 s
Screen (Rs) ([5]; sample 0114 S12, FXIDef (con)): 0.94
Confirm ([5]; sample 0114 S13, FXIIDef (con)): 45.3 s
Confirm (Rc) ([5]; sample 0114 S13, FXIIDef (con)): 0.90
S/C (NR) ([5]; sample 0114 S13, FXIIDef (con)): 1.01
S/C (R) ([5]; sample 0114 S13, FXIIDef (con)): 0.99
Screen ([5]; sample 0114 S13, FXIIDef (con)): 44.9 s
Screen (Rs) ([5]; sample 0114 S13, FXIIDef (con)): 0.91
Confirm ([5]; sample 0114 S14, FXIIDef (acq)): 53.4 s
Confirm (Rc) ([5]; sample 0114 S14, FXIIDef (acq)): 1.06
S/C (NR) ([5]; sample 0114 S14, FXIIDef (acq)): 0.94
S/C (R) ([5]; sample 0114 S14, FXIIDef (acq)): 0.93
Screen ([5]; sample 0114 S14, FXIIDef (acq)): 49.4 s
Screen (Rs) ([5]; sample 0114 S14, FXIIDef (acq)): 1.00
Confirm ([5]; sample 0114 S15, LA Postive): 49.7 s
Confirm (Rc) ([5]; sample 0114 S15, LA Postive): 0.99
S/C (NR) ([5]; sample 0114 S15, LA Postive): 2.49
S/C (R) ([5]; sample 0114 S15, LA Postive): 2.45
Screen ([5]; sample 0114 S15, LA Postive): 121.8 s
Screen (Rs) ([5]; sample 0114 S15, LA Postive): 2.46
Confirm ([5]; sample 0114 S16, LA Postive): 51.7 s
Confirm (Rc) ([5]; sample 0114 S16, LA Postive): 1.03
S/C (NR) ([5]; sample 0114 S16, LA Postive): 2.70
S/C (R) ([5]; sample 0114 S16, LA Postive): 2.66
Screen ([5]; sample 0114 S16, LA Postive): 137.4 s
Screen (Rs) ([5]; sample 0114 S16, LA Postive): 2.77
Confirm ([5]; sample 0114 S17, LA Postive): 49.8 s
Confirm (Rc) ([5]; sample 0114 S17, LA Postive): 0.99
S/C (NR) ([5]; sample 0114 S17, LA Postive): 2.19
S/C (R) ([5]; sample 0114 S17, LA Postive): 2.15
Screen ([5]; sample 0114 S17, LA Postive): 107.3 s
Screen (Rs) ([5]; sample 0114 S17, LA Postive): 2.16

hirudin
Screen-to-Confirm Ratio of dRVVT Assay ([1]; 1000 ng/ml hirudin (1.02 in the absence of hirudin)): 1.18
Normalized ratio of dRVVT Assay ([2]; LA positive sample, 200 ng/ml hirudin alone): 1.72
Normalized ratio of dRVVT Assay ([2]; LA positive sample, 1000 ng/ml hirudin (1.39 without thrombin inhibitor)): 1.81
Screen-to-Confirm Ratio of dRVVT Assay ([2]; LA positive sample, 1000 ng/ml hirudin (1.41 in the absence of hirudin)): 2.14
